What all share (type): cell-based
In assay [1] the test system is GOTO cells. Description: Treatment with MPP+ or H2O2: cell death, LAPTM5 expression (quantitative RT-PCR), MYCN expression (Western blot). Conditions: for LAPTM5 expression / frequency of cell death: MPP+ 1 or 2 mM 24 hours, H2O2 100 or 200 uM 48 hours; for MYCN expression: MPP+ or H2O2 treatment. How it is done:
In FIG. 5(a), the GOTO cells were treated with MPP+ (1 or 2 mM) for 24 hours or with H2O2 (100 or 200 uM) for 48 hours. Thereafter, the dead cells were assayed via trypan blue exclusion. The LAPTM5 expression level was analyzed via quantitative RT-PCR. A vertical line represents the standard deviation of two experiments.
The prepared samples were subjected to SDS-PAGE, and Western blot analysis was carried out using relevant antibodies.
The cause for NB cell degeneration upon regression of favorable NB tumors has not yet been elucidated. […] This indicates a common mechanism between NB tumor regression and cell degeneration in the case of neurodegenerative diseases. Mitochondrial injury and oxidative stress are known to be deeply involved in neuron degeneration in the case of neurodegenerative disease. […] MYCN proteins are known to not only activate but also suppress transcription of various target genes. Accordingly, MYCN proteins that have been activated via amplification were considered to suppress activation of LAPTM5 transcription induced by stress. Thus, whether or not MYCN would directly bind to a site in the vicinity of the transcription initiation point of the LAPTM5 gene was inspected via ChIP assay. […] Meanwhile, the IMR32 cell line is known to differentiate into nerve cells via treatment with retinoic acid.
In general terms: A western blot detects proteins with antibodies after separation by electrophoresis.

For assay [2], the system named is Ad-LAPTM5-infected GOTO cells. Description: Cell death frequency along with LAPTM5 accumulation, trypan blue exclusion. The note with it: treated one day after Ad-LAPTM5 infection for additional one day. How it is done:
As in the case of (a), the cells that had died upon treatment were assayed via trypan blue exclusion. A vertical line represents the standard deviation of two experiments.
(§1) Accordingly, whether or not LAPTM5 would undergo proteasomal or lysosomal proteolysis and whether or not LAPTM5 accumulation would be important for cell death were inspected. One day after Ad-LAPTM5 infection, the cells were treated with a proteasome inhibitor (ALLN or MG132) or a lysosome inhibitor (Bailomycin A1 and NH4Cl) for additional one day. Thereafter, the cells were recovered, samples were prepared, and Western blot analysis was performed. […] Further, this accumulation was also confirmed via fluorescent staining using the LAPTM5 antibody (FIG. 4b). […] Thus, LAPTM5 was considered to undergo proteasomal and lysosomal proteolysis, and LAPTM5 accumulation was considered to be deeply involved with induction of cell death. In order to examine whether or not LAPTM5 accumulation would be essential for induction of cell death, the influence of transfection of siRNA against LAPTM5 was then examined.

Assay [3] has as its system LAPTM5 in Ad-LAPTM5-infected GOTO cells. Description: LAPTM5 accumulation upon blocking proteasomal or lysosomal degradation, Western blot and fluorescent staining. The note with it: treated one day after Ad-LAPTM5 infection for additional one day. The protocol:
The cells were treated with a proteasome inhibitor (ALLN or MG132) or a lysosomal degradation inhibitor (Bafilimycin A1 or […]) 1 day later. The cells were recovered 1 day later, the samples were prepared, and Western blot analysis was then carried out. The prepared samples were subjected to SDS-PAGE, and Western blot analysis was carried out using relevant antibodies.
As with the case of (a), the cells were treated, fixed, subjected to the immune reaction using the LAPTM5 antibody, and visualized with the use of the Texas Red complex secondary antibody.
After the control or LAPTM5 siRNA was transfected, the cells were treated as with the case of (a), and the samples were prepared. Western blot analysis was carried out using the LAPTM5 antibody.
as §1

Assay [4] deals with GOTO cells that stably express GFP-LC3. Description: Treatment with an LMP inducer, immunoblot of GFP-LC3 type II and p62/SQSTM1. The note with it: CPX 100 or 300 μg/ml. The protocol: The GOTO cells (1×10^6 cells/well) that stably express GFP-LC3 were sowed on a 6-well plate and treated with ciprofloxican (CPX) (100 or 300 μg/ml) or a solvent thereof (0.1N hydrochloric acid) so as to induce LMP. The total cell extract obtained from the treated cells was electrophoresed via SDS-PAGE and subjected to immunoblot analysis using antibodies reacting with relevant proteins.
LAPTM5 is known to be a membrane protein that localizes in the lysosome. […] Such changes in LTR staining patterns result from LMP, which indicates destabilization and destruction of the lysosome. LMP was observed along with an increase in LAPTM5-induced cell death (2.7 times in GOTO cell (p=0.0007) and 5.4 times in IMR32 cell (p=0.0108), compared with Ad-LacZ cell; FIG. 11). […] Accordingly, LAPTM5-induced LMP was deduced to induce blocking of the autophagy pathway. […] In conformity with the results of in vitro observation, elevated expression of p62/SQSTM1, ubiquitinated proteins, and cathepsin D was also observed via immunohistological staining (FIG. 3f). […] At the same time, lysosome instability induced by LAPTM5 was considered to induce accumulation of immature autophagic vesicles and ubiquitinated proteins.

Assay [5] has as its system GOTO cells. The experiment in a line: Frequency of dead cells via trypan blue exclusion after adenovirus infection. Conditions: zVAD 100 μM. The protocol: (§2) The cells that had been sowed under the same conditions as in (b) were infected with the same MOIs of Ad-LacZ or Ad-LAPTM5. Also, the cell lines were treated or not treated with the pan-caspase inhibitor, zVAD-fink. The number of dead cells was determined via trypan blue exclusion 2 days and 4 days after infection and was indicated in terms of percentage. A vertical line represents the standard deviation of two experiments.
(§3) In order to inspect whether or not LAPTM5 expression is associated with cell death of neuroblastoma cells, the influence of forced LAPTM5 expression in the neuroblastoma cell line was inspected using the adenovirus-mediated expression system. Cell death and the survival rate were assayed by sowing the cells on a 24-well plate and infecting the cells with the selected MOIs of viruses (multiplicities of infection; PFU/cell). The number of dead cells was determined via trypan blue exclusion 2 or 4 days after infection. The pan-caspase inhibitor, zVAD-fml, was used at a concentration of 100 μM. At least 200 cells were counted in each experiment. The number of survived cells was determined via colorimetric assay using a water-soluble tetrazolium salt (the cell counting kit-8; Dojindo Laboratories).

In the next assay the test system is IMR32 cells. The assay is described as above. The note with it: zVAD 100 μM. The protocol: as §2, §3

Non-standard residues stand in square brackets, D forms with d. Residues, ends and D or L forms follow the SMILES beside them. *: point of attachment. Nle = CCCC[C@H](N)C(=O)O; Cbz = O=C(OCc1ccccc1)*; CH2F = FC*

With `OO` [H2O2], in the assay with GOTO cells [1], the LAPTM5 expression result was “activated”, the “frequency of cell death” value is recorded as “frequency of concentration-dependent cell death increased” and the MYCN expression result was “decrease”.
As to `CC(C)C[C@@H](C=O)NC(=O)[C@H](CC(C)C)NC(=O)[C@H](CC(C)C)NC(=O)OCc1ccccc1` [MG132] (Cbz-Leu-Leu-Leu-aldehyde), the cell death frequency result in assay [2] is on record as “significantly increased”. Further, the “accumulation of expressed LAPTM5” value in assay [3] is on record as “significantly accumulated”.
For the compound `CCCC[C@@H](C=O)NC(=O)[C@H](CC(C)C)NC(=O)[C@H](CC(C)C)NC(C)=O` [ALLN] (Ac-Leu-Leu-[Nle]-aldehyde), the cell death frequency entry in assay [2] is on record as “significantly increased”. For the same compound, the “accumulation of expressed LAPTM5” value in assay [3] is “significantly accumulated”.
Regarding `Cl.N` [NH4Cl], in assay [2], the cell death frequency entry is given as “significantly increased”. The “accumulation of expressed LAPTM5” value in assay [3] is on record as “significantly accumulated”.
In the case of `C[n+]1ccc(-c2ccccc2)cc1` [MPP+, 1-methyl-4-phenylpridinium], in the assay with GOTO cells [1], the LAPTM5 expression entry is listed as “activated”, the “frequency of cell death” value is “frequency of concentration-dependent cell death increased” and the MYCN expression entry is recorded as “decrease”.
Consider `O=C(O)c1cn(C2CC2)c2cc(N3CCNCC3)c(F)cc2c1=O` [ciprofloxacin], for which, in assay [4], the LC3-II detection entry is “LC3-II was detected” and the p62/SQSTM1 protein accumulation entry was “p62/SQSTM1 protein accumulation was observed”.
On to `CO/C1=C\C(C)=C\[C@@H](C)[C@@H](O)[C@@H](C)C/C(C)=C/C=C/[C@H](OC)[C@@H]([C@@H](C)[C@@H](O)[C@H](C)[C@@]2(O)C[C@@H](O)[C@H](C)[C@@H](C(C)C)O2)OC1=O` [Bafilomycin A1], for which the cell death frequency entry in assay [2] is “significantly increased”. Also, the “accumulation of expressed LAPTM5” value in assay [3] was “significantly accumulated”.
Regarding `COC(=O)C[C@H](NC(=O)[C@H](C)NC(=O)[C@@H](NC(=O)OCc1ccccc1)C(C)C)C(=O)CF` [zVAD-fmk] (Cbz-Val-Ala-Asp(OMe)-CH2F), the “inhibition of Ad-LAPTM5-induced cell death by caspase inhibitor” value with GOTO cells [5] and with IMR32 cells was “would not be inhibited” in each case.
